Reference: PubChem BioAssay (NCI)
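Five compound concentrations were applied to cells in 96-well plates for 48 hours; endpoints were derived by simple linear interpolation of the resulting dose-response curve. The concentration for 50% growth inhibition is given as GI50. At the TGI there is no net growth.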

What was measured:
Test in all cases: growth of human tumour cells (NCI), 48 h
EKVX NSCLC = test system: EKVX NSCLC
OVCAR-5 ovarian = test system: OVCAR-5 ovarian
UACC-257 melanoma = test system: UACC-257 melanoma
K-562 leukemia = test system: K-562 leukemia
OVCAR-3 ovarian = test system: OVCAR-3 ovarian
SF-295 CNS = test system: SF-295 CNS
NCI-H522 lung = test system: NCI-H522 lung
MDA-MB-435 = test system: MDA-MB-435
OVCAR-4 ovarian = test system: OVCAR-4 ovarian
NCI/ADR-RES ovarian = test system: NCI/ADR-RES ovarian
HCT-15 colon = test system: HCT-15 colon
KM12 colon = test system: KM12 colon
U251 CNS = test system: U251 CNS
HT29 colon = test system: HT29 colon
786-0 renal = test system: 786-0 renal
SK-MEL-2 melanoma = test system: SK-MEL-2 melanoma
MOLT-4 leukemia = test system: MOLT-4 leukemia
RXF 393 renal = test system: RXF 393 renal
MALME-3M melanoma = test system: MALME-3M melanoma
T-47D breast = test system: T-47D breast
NCI-H226 lung = test system: NCI-H226 lung
HOP-92 NSCLC = test system: HOP-92 NSCLC
SF-539 CNS = test system: SF-539 CNS
HOP-62 NSCLC = test system: HOP-62 NSCLC
TK-10 renal = test system: TK-10 renal
MDA-MB-468 breast = test system: MDA-MB-468 breast
CAKI-1 renal = test system: CAKI-1 renal
ACHN renal = test system: ACHN renal
MDA-MB-231 breast = test system: MDA-MB-231 breast
A549 NSCLC = test system: A549 NSCLC
HL-60(TB) leukemia = test system: HL-60(TB) leukemia
BT-549 breast = test system: BT-549 breast
SK-OV-3 ovarian = test system: SK-OV-3 ovarian
SK-MEL-5 melanoma = test system: SK-MEL-5 melanoma
COLO 205 colon = test system: COLO 205 colon
SF-268 CNS = test system: SF-268 CNS
SN12C renal = test system: SN12C renal
SNB-19 CNS = test system: SNB-19 CNS
MCF7 breast = test system: MCF7 breast
IGROV1 ovarian = test system: IGROV1 ovarian
UACC-62 melanoma = test system: UACC-62 melanoma
SNB-75 CNS = test system: SNB-75 CNS
OVCAR-8 ovarian = test system: OVCAR-8 ovarian
LOX IMVI melanoma = test system: LOX IMVI melanoma
DU-145 prostate = test system: DU-145 prostate
A498 renal = test system: A498 renal
PC-3 prostate = test system: PC-3 prostate
UO-31 renal = test system: UO-31 renal
SK-MEL-28 melanoma = test system: SK-MEL-28 melanoma
SW-620 colon = test system: SW-620 colon
HCC-2998 colon = test system: HCC-2998 colon
NCI-H460 lung = test system: NCI-H460 lung
NCI-H23 lung = test system: NCI-H23 lung
HS 578T breast = test system: HS 578T breast

COc1ccc(C(=O)/C=C/c2ccc(Cl)c(C(F)(F)F)c2)cc1S(N)(=O)=O
GI50 (EKVX NSCLC): 2.15 µM | TGI (EKVX NSCLC): 5.75 µM | GI50 (OVCAR-5 ovarian): 3.27 µM | TGI (OVCAR-5 ovarian): 9.35 µM | GI50 (UACC-257 melanoma): 2.1 µM | TGI (UACC-257 melanoma): 6.2 µM | GI50 (K-562 leukemia): 1.08 µM | TGI (K-562 leukemia): > 100 µM | GI50 (OVCAR-3 ovarian): 1.42 µM | TGI (OVCAR-3 ovarian): 2.87 µM | GI50 (SF-295 CNS): 1.64 µM | TGI (SF-295 CNS): 3.32 µM | GI50 (NCI-H522 lung): 1.54 µM | TGI (NCI-H522 lung): 3.15 µM | GI50 (MDA-MB-435): 1.75 µM | TGI (MDA-MB-435): 4.28 µM | GI50 (OVCAR-4 ovarian): 2.8 µM | TGI (OVCAR-4 ovarian): 12.5 µM | GI50 (NCI/ADR-RES ovarian): 1.05 µM | TGI (NCI/ADR-RES ovarian): 3.33 µM | GI50 (HCT-15 colon): 0.893 µM | TGI (HCT-15 colon): 2.34 µM | GI50 (KM12 colon): 1.76 µM | TGI (KM12 colon): 5.65 µM | GI50 (U251 CNS): 1.42 µM | TGI (U251 CNS): 3.08 µM | GI50 (HT29 colon): 1.52 µM | TGI (HT29 colon): 3.06 µM | GI50 (786-0 renal): 0.419 µM | TGI (786-0 renal): 1.8 µM | GI50 (SK-MEL-2 melanoma): 6.78 µM | TGI (SK-MEL-2 melanoma): 20.4 µM | GI50 (MOLT-4 leukemia): 2.57 µM | TGI (MOLT-4 leukemia): 8.33 µM | GI50 (RXF 393 renal): 1.64 µM | TGI (RXF 393 renal): 3.1 µM | GI50 (MALME-3M melanoma): 1.88 µM | TGI (MALME-3M melanoma): 4.01 µM | GI50 (T-47D breast): 2.37 µM | TGI (T-47D breast): 9.36 µM | GI50 (NCI-H226 lung): 2.22 µM | TGI (NCI-H226 lung): 5.6 µM | GI50 (HOP-92 NSCLC): 2.01 µM | TGI (HOP-92 NSCLC): 5.81 µM | GI50 (SF-539 CNS): 1.61 µM | TGI (SF-539 CNS): 3 µM | GI50 (HOP-62 NSCLC): 1.93 µM | TGI (HOP-62 NSCLC): 4.13 µM | GI50 (TK-10 renal): 2.59 µM | TGI (TK-10 renal): 7.23 µM | GI50 (MDA-MB-468 breast): 1.34 µM | TGI (MDA-MB-468 breast): 2.69 µM | GI50 (CAKI-1 renal): 1.57 µM | TGI (CAKI-1 renal): 4.16 µM | GI50 (ACHN renal): 1.47 µM | TGI (ACHN renal): 2.84 µM | GI50 (MDA-MB-231 breast): 1.69 µM | TGI (MDA-MB-231 breast): 3.37 µM | GI50 (A549 NSCLC): 2.34 µM | TGI (A549 NSCLC): 10.3 µM | GI50 (HL-60(TB) leukemia): 1.72 µM | TGI (HL-60(TB) leukemia): 5.49 µM | GI50 (BT-549 breast): 1.71 µM | TGI (BT-549 breast): 3.18 µM | GI50 (SK-OV-3 ovarian): 7.9 µM | TGI (SK-OV-3 ovarian): 23.8 µM | GI50 (SK-MEL-5 melanoma): 3.63 µM | TGI (SK-MEL-5 melanoma): 13.3 µM | GI50 (COLO 205 colon): 1.96 µM | TGI (COLO 205 colon): 4.08 µM | GI50 (SF-268 CNS): 10 µM | TGI (SF-268 CNS): 32.1 µM | GI50 (SN12C renal): 1.45 µM | TGI (SN12C renal): 2.94 µM | GI50 (SNB-19 CNS): 1.66 µM | TGI (SNB-19 CNS): 3.37 µM | GI50 (MCF7 breast): 0.333 µM | TGI (MCF7 breast): 1.39 µM | GI50 (IGROV1 ovarian): 1.87 µM | TGI (IGROV1 ovarian): 4.01 µM | GI50 (UACC-62 melanoma): 1.52 µM | TGI (UACC-62 melanoma): 3.41 µM | GI50 (SNB-75 CNS): 1.62 µM | TGI (SNB-75 CNS): 9.69 µM | GI50 (OVCAR-8 ovarian): 1.74 µM | TGI (OVCAR-8 ovarian): 4.51 µM | GI50 (LOX IMVI melanoma): 0.313 µM | TGI (LOX IMVI melanoma): 1.1 µM | GI50 (DU-145 prostate): 4.99 µM | TGI (DU-145 prostate): 17 µM | GI50 (A498 renal): 12.9 µM | TGI (A498 renal): 25.6 µM | GI50 (PC-3 prostate): 1.75 µM | TGI (PC-3 prostate): 4.52 µM | GI50 (UO-31 renal): 1.4 µM | TGI (UO-31 renal): 2.74 µM | GI50 (SK-MEL-28 melanoma): 1.74 µM | TGI (SK-MEL-28 melanoma): 3.19 µM | GI50 (SW-620 colon): 1.23 µM | TGI (SW-620 colon): 2.69 µM | GI50 (HCC-2998 colon): 1.59 µM | TGI (HCC-2998 colon): 2.93 µM | GI50 (NCI-H460 lung): 2.4 µM | TGI (NCI-H460 lung): 6.62 µM | GI50 (NCI-H23 lung): 1.62 µM | TGI (NCI-H23 lung): 3.04 µM | GI50 (HS 578T breast): 6.57 µM | TGI (HS 578T breast): 38.8 µM
